These results are taken from patent publication US20220280584A1, “CROTON LECHLERI COMPOSITIONS FOR USE IN TREATING BLEEDING, WOUNDS AND INFECTIONS” (priority 2019, published 2022).

In brackets after ≈: the same amount, converted by molar mass.

Assay [1] has as its system S. pyogenes. As to the kind of experiment: MIC against S. pyogenes (Erythromycin and Tetracycline resistant strains). The format is cell-based. The settings on record: Streptococcus pyogenes, antibiotic screening. As for the experimental part:
Tables 14 and 15 show an assay whose setup is same as what was used for screening S. aureus and P. aeruginosa (i.e. 2-fold microdilution). The 20 strains of S. pyogenes assayed were selected from the two rounds of antibiotic screening to identify Erythromycin and Tetracycline resistant strains. […] For this feasibility study, AB-101 Lot 1 and Lot 2 was used. P. aeruginosa ATCC 27853 was tested as a positive control for AB-101 activity.

The test system of assay [2] is the cells. The settings on record: Chen, Planta Med. 60 (1994), cited from earlier work; for Wound healing properties / healing effects: Ecuadorian sap; for Effect on cell proliferation: compounds obtained through extraction.
Assay [3] relates to MSSA and MRSA (Staphylococcus aureus). The experiment in a line: MIC, in vitro assay of MSSA and MRSA (2-fold microdilution). The format is cell-based. The settings on record: for MIC: Staphylococcus aureus.
Assay [4] shares this test system. The experiment in a line: MBC, in vitro assay of MSSA and MRSA. The format is cell-based.

With `CN[C@H](CC(C)C)C(=O)N[C@H]1C(=O)N[C@@H](CC(N)=O)C(=O)N[C@H]2C(=O)N[C@H]3C(=O)N[C@H](C(=O)N[C@H](C(=O)O)c4cc(O)cc(O)c4-c4cc3ccc4O)[C@H](O)c3ccc(c(Cl)c3)Oc3cc2cc(c3O[C@@H]2O[C@H](CO)[C@@H](O)[C@H](O)[C@H]2O[C@H]2C[C@](C)(N)[C@H](O)[C@H](C)O2)Oc2ccc(cc2Cl)[C@H]1O` [Vancomycin], the MIC was 0.5 µg/mL (≈ 0.345 µM) in assay [1] (S. pyogenes strain 1744264); 8 µg/mL (≈ 5.52 µM) in assay [1] (S. pyogenes strain 1744265); 0.5 µg/mL (≈ 0.345 µM) in assay [1] (S. pyogenes strain 1744271); 1 µg/mL (≈ 0.69 µM) in assay [1] (S. pyogenes strain 1744272); 0.25 to 0.5 µg/mL (≈ 0.173 to 0.345 µM) in assay [1] (S. pyogenes strain 1744275); 4 µg/mL (≈ 2.76 µM) in assay [1] (S. pyogenes strain 1744277). For the same compound, the MIC in assay [1] (S. pyogenes strain 1744285), in assay [1] (S. pyogenes strain 2065754), in assay [1] (S. pyogenes strain 2065755), in assay [1] (S. pyogenes strain 2065756), in assay [1] (S. pyogenes strain 2065757) and in assay [1] (S. pyogenes strain 2065759) was 0.5 µg/mL (≈ 0.345 µM) throughout. The MIC is 0.5 µg/mL (≈ 0.345 µM) in assay [1] (S. pyogenes strain 2065760); 0.5 µg/mL (≈ 0.345 µM) in assay [1] (S. pyogenes strain 2065761); 0.5 µg/mL (≈ 0.345 µM) in assay [1] (S. pyogenes strain 2065762); 0.5 µg/mL (≈ 0.345 µM) in assay [1] (S. pyogenes strain 2065763); 2 to 4 µg/mL (≈ 1.38 to 2.76 µM) in assay [1] (S. pyogenes strain 2065765); 0.25 to 0.5 µg/mL (≈ 0.173 to 0.345 µM) in assay [1] (S. pyogenes strain 20658748). Also, the minimal inhibitory concentration (MIC) in assay [1] (S. pyogenes strain 20658749) and in assay [1] (S. pyogenes strain 20658750) was 0.5 µg/mL (≈ 0.345 µM) in each case.
As for `COc1ccc([C@H]2Oc3c(OC)cc(CCCO)cc3[C@@H]2CO)cc1OC` [dimethylcedrusin], the “Wound healing properties / healing effects” value in assay [2] is “little healing effects”.
Catechin: the “Effect on cell proliferation” value in assay [2] is on record as “little effect”.
As for `C/C(=C\C(=O)OCCCCCCCCC(=O)O)C[C@@H]1OC[C@H](C[C@@H]2O[C@H]2[C@@H](C)[C@H](C)O)[C@@H](O)[C@H]1O` [Mupirocin], the MIC is above 256 µg/mL in assay [3] (strain 1674606, MupirocinR, MSSA); above 256 µg/mL in assay [3] (strain 1674607, MupirocinR, MRSA); 0.25 to 0.5 µg/mL (≈ 0.499 to 0.999 µM) in assay [3] (strain CDC 227, MupirocinS, MRSA); at most 0.25 µg/mL in assay [3] (strain CDC 462, MupirocinS, MSSA); at most 0.25 µg/mL in assay [3] (strain CDC 464, MupirocinS, MSSA); at most 0.25 µg/mL in assay [3] (strain CDC 484, MupirocinS, MSSA). For the same compound, in assay [3] (strain CDC 485, MupirocinS, MSSA), the MIC is at most 0.25 µg/mL.
With `COc1ccc2c(=O)oc3c(OC)cc(CCN(C)C)c4c(=O)oc1c2c34` [Taspine], the “Activity against MSSA and MRSA (MIC)” value in assay [3] (purified extract of taspine, highest concentration tested 50% relative to AB-101 = 10 μg/mL) is “does not have activity”. Further, in assay [3] (strain ATCC 29213, QC control, 50% = 10 μg/mL taspine), the “MIC (% relative to amount in AB-101)” value was >50 % relative to amount in AB-101. Besides, the “Activity against MSSA and MRSA (MBC)” value in assay [4] (purified extract of taspine) is “does not have activity”. Besides, in assay [4] (strain ATCC 29213, QC control), the “MBC (% relative to amount in AB-101)” value is reported as >50 % relative to amount in AB-101. Moreover, the “Wound healing properties / healing effects” value in assay [2] is listed as “little healing effects”.
With `Oc1cc(O)c2c(c1)O[C@H](c1cc(O)c(O)c(O)c1)[C@@H](O)C2` [Gallocatechin], the “Effect on cell proliferation” value in assay [2] is recorded as “slightly stimulating”.
Consider `Oc1cc(O)c2c(c1)O[C@H](c1cc(O)c(O)c(O)c1)[C@H](O)C2` [Epigallocatechin], for which the “Effect on cell proliferation” value in assay [2] is “slightly stimulating”.
